Laboratory results as given in ChEMBL document CHEMBL1201862, “PubChem BioAssay data set” (2004).
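All cell lines were grown in 96-well plates and treated with compound for 48 hours. The concentration for 50% growth inhibition is given as GI50.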 Active and inactive are the calls of the source. Cut-off read from the data, not from the text of the source: active = GI50 up to about 1.1 µM and inactive = higher.

Key:
Assay in all cases: inhibition of tumour cell growth, NCI panel, 48 h
UACC-62 = test system: UACC-62
MCF7 = test system: MCF7
SF-295 = test system: SF-295
NCI-H460 = test system: NCI-H460
HOP-92 = test system: HOP-92
DU-145 = test system: DU-145
EKVX = test system: EKVX
NCI-H23 = test system: NCI-H23
A549 = test system: A549
786-0 = test system: 786-0
SR = test system: SR
RPMI-8226 = test system: RPMI-8226
HL-60 = test system: HL-60
SNB-19 = test system: SNB-19
IGROV-1 = test system: IGROV-1
NCI-H522 = test system: NCI-H522
HOP-62 = test system: HOP-62
TK-10 = test system: TK-10
SF-268 = test system: SF-268
SK-MEL-2 = test system: SK-MEL-2
K562 = test system: K562
KM12 = test system: KM12
A498 = test system: A498
RXF 393 = test system: RXF 393
UACC-257 = test system: UACC-257
Malme-3M = test system: Malme-3M
CCRF-CEM = test system: CCRF-CEM
SN12C = test system: SN12C
HCT-116 = test system: HCT-116
ACHN = test system: ACHN
SNB-75 = test system: SNB-75
NCI/ADR-RES = test system: NCI/ADR-RES
HT-29 = test system: HT-29
Hs-578T = test system: Hs-578T
MOLT-4 = test system: MOLT-4
COLO 205 = test system: COLO 205
NCI-H226 = test system: NCI-H226
LOX IMVI = test system: LOX IMVI
BT-549 = test system: BT-549
HCT-15 = test system: HCT-15
MDA-MB-435 = test system: MDA-MB-435
MDA-MB-231 = test system: MDA-MB-231
SK-OV-3 = test system: SK-OV-3
OVCAR-3 = test system: OVCAR-3
OVCAR-8 = test system: OVCAR-8
SF-539 = test system: SF-539
PC-3 = test system: PC-3
OVCAR-5 = test system: OVCAR-5
SW-620 = test system: SW-620
M14 = test system: M14
U-251 = test system: U-251
T47D = test system: T47D
CAKI-1 = test system: CAKI-1
HCC 2998 = test system: HCC 2998
OVCAR-4 = test system: OVCAR-4
SK-MEL-5 = test system: SK-MEL-5
UO-31 = test system: UO-31
SK-MEL-28 = test system: SK-MEL-28
MDA-N = test system: MDA-N

In the case of `Oc1[nH]c(Nc2cccc(Cl)c2)nc2ncnc1-2`, the GI50 (UACC-62) is reported as 63.7 µM (inactive), the GI50 (MCF7) is reported as > 100 µM (inactive) and the GI50 (SF-295) is reported as > 100 µM (inactive). For the same molecule, the GI50 (NCI-H460) was > 100 µM (inactive), the GI50 (HOP-92) was 83 µM (inactive) and the GI50 (DU-145) was 74.6 µM (inactive). For the same molecule, the GI50 (EKVX) was > 100 µM (inactive), the GI50 (NCI-H23) was > 100 µM (inactive) and the GI50 (A549) was > 100 µM (inactive). The GI50 (786-0) was > 100 µM (inactive), the GI50 (SR) was > 100 µM (inactive) and the GI50 (RPMI-8226) was > 100 µM (inactive). For the same molecule, the GI50 (HL-60) was 79.8 µM (inactive), the GI50 (SNB-19) was > 100 µM (inactive) and the GI50 (IGROV-1) was 80.4 µM (inactive). For the same molecule, the GI50 (NCI-H522) was > 100 µM (inactive), the GI50 (HOP-62) was 28.1 µM (inactive) and the GI50 (TK-10) was > 100 µM (inactive). For the same molecule, the GI50 (SF-268) was > 100 µM (inactive), the GI50 (SK-MEL-2) was 86.3 µM (inactive) and the GI50 (K562) was 86.5 µM (inactive). The GI50 (KM12) was > 100 µM (inactive), the GI50 (A498) was > 100 µM (inactive) and the GI50 (RXF 393) was > 100 µM (inactive). The GI50 (UACC-257) was > 100 µM (inactive), the GI50 (Malme-3M) was > 100 µM (inactive) and the GI50 (CCRF-CEM) was 71.4 µM (inactive). For the same molecule, the GI50 (SN12C) was > 100 µM (inactive), the GI50 (HCT-116) was 62.4 µM (inactive) and the GI50 (ACHN) was > 100 µM (inactive). For the same molecule, the GI50 (SNB-75) was 30.5 µM (inactive), the GI50 (NCI/ADR-RES) was > 100 µM (inactive) and the GI50 (HT-29) was 53.7 µM (inactive). The GI50 (Hs-578T) was 68.5 µM (inactive), the GI50 (MOLT-4) was 38.6 µM (inactive) and the GI50 (COLO 205) was > 100 µM (inactive). For the same molecule, the GI50 (NCI-H226) was > 100 µM (inactive), the GI50 (LOX IMVI) was 80.7 µM (inactive) and the GI50 (BT-549) was > 100 µM (inactive). The GI50 (HCT-15) was > 100 µM, the GI50 (MDA-MB-435) was 83.8 µM (inactive) and the GI50 (MDA-MB-231) was 30.8 µM (inactive). For the same molecule, the GI50 (SK-OV-3) was > 100 µM (inactive), the GI50 (OVCAR-3) was 48.4 µM (inactive) and the GI50 (OVCAR-8) was > 100 µM (inactive). For the same molecule, the GI50 (SF-539) was 82.8 µM (inactive), the GI50 (PC-3) was 25.4 µM (inactive) and the GI50 (OVCAR-5) was > 100 µM (inactive). For the same molecule, the GI50 (SW-620) was > 100 µM (inactive), the GI50 (M14) was 95.7 µM (inactive) and the GI50 (U-251) was > 100 µM (inactive). The GI50 (T47D) was 44.9 µM (inactive), the GI50 (CAKI-1) was > 100 µM (inactive) and the GI50 (HCC 2998) was 76.6 µM (inactive). The GI50 (OVCAR-4) was > 100 µM (inactive), the GI50 (SK-MEL-5) was > 100 µM (inactive) and the GI50 (UO-31) was > 100 µM (inactive).

For `O=C(CC(Cl)=C(Cl)Cl)c1ccccc1`, the GI50 (UACC-62) was 37.5 µM (inactive), the GI50 (MCF7) was > 100 µM (inactive) and the GI50 (SF-295) was > 100 µM (inactive). For the same molecule, the GI50 (NCI-H460) was > 100 µM (inactive), the GI50 (HOP-92) was > 100 µM (inactive) and the GI50 (DU-145) was > 100 µM (inactive). The GI50 (NCI-H23) was 81.1 µM (inactive), the GI50 (A549) was > 100 µM (inactive) and the GI50 (SK-MEL-28) was 55.7 µM (inactive). The GI50 (786-0) was 21.8 µM (inactive), the GI50 (SR) was 21.4 µM (inactive) and the GI50 (RPMI-8226) was 18 µM (inactive). The GI50 (HL-60) was 55.8 µM (inactive), the GI50 (SNB-19) was > 100 µM (inactive) and the GI50 (IGROV-1) was 80 µM (inactive). The GI50 (NCI-H522) was 23.9 µM (inactive), the GI50 (HOP-62) was > 100 µM (inactive) and the GI50 (TK-10) was > 100 µM (inactive). The GI50 (SF-268) was > 100 µM (inactive), the GI50 (SK-MEL-2) was > 100 µM (inactive) and the GI50 (K562) was 21.5 µM (inactive). For the same molecule, the GI50 (KM12) was 53.1 µM (inactive), the GI50 (A498) was > 100 µM (inactive) and the GI50 (RXF 393) was 21.2 µM (inactive). For the same molecule, the GI50 (UACC-257) was 27.4 µM (inactive), the GI50 (Malme-3M) was 31.8 µM (inactive) and the GI50 (CCRF-CEM) was 13.7 µM (inactive). The GI50 (HCT-116) was 21.3 µM (inactive), the GI50 (ACHN) was 43.5 µM (inactive) and the GI50 (SNB-75) was > 100 µM (inactive). For the same molecule, the GI50 (NCI/ADR-RES) was 74.8 µM (inactive), the GI50 (HT-29) was 31.6 µM (inactive) and the GI50 (Hs-578T) was > 100 µM (inactive). For the same molecule, the GI50 (MOLT-4) was 12.3 µM (inactive), the GI50 (COLO 205) was 28.8 µM (inactive) and the GI50 (NCI-H226) was 28.9 µM (inactive). The GI50 (LOX IMVI) was 15 µM (inactive), the GI50 (BT-549) was 66.1 µM (inactive) and the GI50 (HCT-15) was 24.8 µM. For the same molecule, the GI50 (MDA-MB-435) was 36.3 µM (inactive), the GI50 (MDA-MB-231) was 34.8 µM (inactive) and the GI50 (SK-OV-3) was > 100 µM (inactive). For the same molecule, the GI50 (OVCAR-3) was 27 µM (inactive), the GI50 (OVCAR-8) was > 100 µM (inactive) and the GI50 (SF-539) was > 100 µM (inactive). The GI50 (PC-3) was > 100 µM (inactive), the GI50 (OVCAR-5) was 46 µM (inactive) and the GI50 (SW-620) was 38.3 µM (inactive). For the same molecule, the GI50 (M14) was 49.5 µM (inactive), the GI50 (U-251) was 57.1 µM (inactive) and the GI50 (T47D) was 34.7 µM (inactive). For the same molecule, the GI50 (CAKI-1) was 24.1 µM (inactive), the GI50 (OVCAR-4) was 17.5 µM (inactive) and the GI50 (SK-MEL-5) was > 100 µM (inactive). For the same molecule, the GI50 (UO-31) was 80.2 µM (inactive).

In the case of `CSc1nc2c(c(=O)n1C)N=C(c1ccccc1)[C@H](C(CC(=O)c1ccccc1)c1ccccc1)C(c1ccccc1)N2` (stereo partly specified), the GI50 (UACC-62) is reported as > 100 µM (inactive), the GI50 (MCF7) is reported as 37.1 µM (inactive) and the GI50 (SF-295) is reported as > 100 µM (inactive). For the same molecule, the GI50 (NCI-H460) was 9.2 µM (inactive), the GI50 (HOP-92) was > 100 µM (inactive) and the GI50 (DU-145) was > 100 µM (inactive). The GI50 (EKVX) was 15.8 µM (inactive), the GI50 (NCI-H23) was > 100 µM (inactive) and the GI50 (A549) was 31.8 µM (inactive). For the same molecule, the GI50 (SK-MEL-28) was > 100 µM (inactive), the GI50 (786-0) was > 100 µM (inactive) and the GI50 (SR) was > 100 µM (inactive). For the same molecule, the GI50 (RPMI-8226) was 19 µM (inactive), the GI50 (HL-60) was 5.22 µM (inactive) and the GI50 (SNB-19) was > 100 µM (inactive). For the same molecule, the GI50 (MDA-N) was > 100 µM (inactive), the GI50 (IGROV-1) was > 100 µM (inactive) and the GI50 (NCI-H522) was 20.5 µM (inactive). For the same molecule, the GI50 (HOP-62) was > 100 µM (inactive), the GI50 (SK-MEL-2) was > 100 µM (inactive) and the GI50 (K562) was 54.5 µM (inactive). For the same molecule, the GI50 (KM12) was 14.7 µM (inactive), the GI50 (A498) was > 100 µM (inactive) and the GI50 (RXF 393) was 65.6 µM (inactive). For the same molecule, the GI50 (UACC-257) was > 100 µM (inactive), the GI50 (Malme-3M) was > 100 µM (inactive) and the GI50 (CCRF-CEM) was 44.8 µM (inactive). For the same molecule, the GI50 (SN12C) was > 100 µM (inactive), the GI50 (HCT-116) was 32 µM (inactive) and the GI50 (ACHN) was > 100 µM (inactive). The GI50 (SNB-75) was 3.12 µM (inactive), the GI50 (NCI/ADR-RES) was 76.6 µM (inactive) and the GI50 (HT-29) was > 100 µM (inactive). The GI50 (MOLT-4) was 5.94 µM (inactive), the GI50 (COLO 205) was > 100 µM (inactive) and the GI50 (NCI-H226) was > 100 µM (inactive). The GI50 (LOX IMVI) was > 100 µM (inactive), the GI50 (BT-549) was > 100 µM (inactive) and the GI50 (HCT-15) was > 100 µM. For the same molecule, the GI50 (MDA-MB-435) was > 100 µM (inactive), the GI50 (MDA-MB-231) was > 100 µM (inactive) and the GI50 (OVCAR-3) was > 100 µM (inactive). The GI50 (OVCAR-8) was > 100 µM (inactive), the GI50 (SF-539) was > 100 µM (inactive) and the GI50 (PC-3) was 9.84 µM (inactive). For the same molecule, the GI50 (OVCAR-5) was > 100 µM (inactive), the GI50 (SW-620) was 26.1 µM (inactive) and the GI50 (M14) was > 100 µM (inactive). For the same molecule, the GI50 (U-251) was > 100 µM (inactive), the GI50 (CAKI-1) was > 100 µM (inactive) and the GI50 (HCC 2998) was > 100 µM (inactive). For the same molecule, the GI50 (OVCAR-4) was 23.6 µM (inactive), the GI50 (SK-MEL-5) was > 100 µM (inactive) and the GI50 (UO-31) was 15 µM (inactive).
